{"source": "patent US9572787B2", "about": "“Inhibition of renal fibrosis” (Rhode Island Hospital, priority 2011, dated 2017)", "key": {"NRK-49F cells": {"system": "NRK-49F cells", "assay": "S3I-201 in cultured renal interstitial fibroblasts (immunoblot, qRT-PCR)", "format": "cell-based, rat", "experimental": "Cell culture and treatments. NRK-49F cells were cultured in Dulbecco's modified eagle's medium (DMEM) (Sigma-Aldrich, St. Louis, Mo.) containing 10% fetal bovine serum (FBS), 0.5% penicillin and streptomycin in an atmosphere of 5% CO2 and 95% air at 37° C. Western blot analysis and Sirius red and immunofluorescent staining were carried out according to standard methods. Quantitative real-time PCR. Real time qRT-PCR amplifications were performed in 20 μl reactions. The amplification protocol was as follows: denaturation for 10 minutes and enzyme activation at 95° C., 40 cycles of 95° C.×10 sec, 59° C.×30 sec, and 72° C.×20 sec, followed by one step […] at 72° C. for 5 minutes. Relative mRNA abundance was determined from the ratios of specific mRNA to 18S ribosomal RNA measured in the same samples, and fold change was calculated relative to the group of sham-operated mice with vehicle treatment."}, "obstructive kidney (UUO)": {"system": "obstructive kidney (UUO)", "assay": "UUO model, daily S3I-201 treatment", "format": "in vivo, mouse", "settings": "for STAT3 phosphorylation: 10 mg/kg i.p. daily", "experimental": "Unilateral […] obstruction (UUO) model and S3I-201 treatment. The UUO model was established in male C57 black mice that weighed 20-25 g (Jackson Laboratory, Bar Harbor, Me.) as described previously. The contralateral kidneys were used as controls. To examine the efficacy of S3I-201 in renal fibrosis after UUO injury, S3I-201 (10 mg/kg) in 50 μl of dimethyl sulfoxide (DMSO) was intraperitoneally administered to mice immediately after ureter ligation and then given daily for 6 or 13 days. Mice were randomized into 4 groups with 6-7 mice in each group as follows: (1) sham injury with DMSO as vehicle; (2) sham injury with S3I-201; (3) UUO injury with DMSO; (4) UUO injury with S3I-201.\nWestern blot analysis and Sirius red and immunofluorescent staining were carried out according to standard methods.\nQuantitative real-time PCR. Real time qRT-PCR amplifications were performed in 20 μl reactions. The amplification protocol was as follows: denaturation for 10 minutes and enzyme activation at 95° C., 40 cycles of 95° C.×10 sec, 59° C.×30 sec, and 72° C.×20 sec, followed by one step […] at 72° C. for 5 minutes. Relative mRNA abundance was determined from the ratios of specific mRNA to 18S ribosomal RNA measured in the same samples, and fold change was calculated relative to the group of sham-operated mice with vehicle treatment.\nELISA. Protein levels of TGF-β1, TNF-α, and IL-1β in kidney homogenates were determined using specific sandwich enzyme immunometric assay kits, ELISA Ready-SET-Go (eBioscience, Inc. San Diego, Calif.) as described previously. The results were normalized by total protein content in kidney homogenates.\nIn situ TUNEL assays. Terminal deoxynucleotidyl transferase biotin-dUTP nick end-labeling (TUNEL) staining was used to detect DNA strand breaks using a detection kit, according to the instructions provided by the manufacturer. The number of TUNEL-positive nuclei per field was evaluated in five fields per section and five sections per kidney."}, "[1]": {"settings": "dose- and time-dependent, 24 h dose series, 50 μM time course"}}}
{"smiles": "Cc1ccc(S(=O)(=O)OCC(=O)Nc2ccc(C(=O)O)c(O)c2)cc1", "note": "[S3I-201]", "values": [{"measurement": "expression of p-STAT3", "setting": "NRK-49F cells; 100 μM, 3 h", "result": "complete inhibition"}, {"measurement": "TGF-β1 mRNA expression", "setting": "NRK-49F cells; 5% FBS, 50 μM S3I-201, 6 h", "result": "significantly decreased"}, {"measurement": "TβRII mRNA expression", "setting": "NRK-49F cells; 5% FBS, 50 μM S3I-201, 6 h", "result": "significantly decreased"}, {"measurement": "TβRIII mRNA expression", "setting": "NRK-49F cells; 5% FBS, 50 μM S3I-201, 6 h", "result": "significantly decreased"}, {"measurement": "expression of p-STAT1", "setting": "NRK-49F cells; 3 h, dose dependent", "result": "increased"}, {"measurement": "STAT5 phosphorylation", "setting": "NRK-49F cells; 3 h, indicated concentrations", "result": "did not affect"}, {"measurement": "expression of fibronectin", "setting": "NRK-49F cells; [1]", "result": "dramatically decreased"}, {"measurement": "expression of α-SMA", "setting": "NRK-49F cells; [1]", "result": "dramatically decreased"}, {"measurement": "apoptosis of interstitial cells (TUNEL)", "setting": "obstructive kidney (UUO); 10 mg/kg daily for 7 days", "result": "increased apoptosis"}, {"measurement": "apoptosis of renal tubular cells (TUNEL)", "setting": "obstructive kidney (UUO); 10 mg/kg daily for 7 days", "result": "did not induce apoptosis"}, {"measurement": "proliferation of interstitial cells (phospho-histone H3 Ser 10)", "setting": "obstructive kidney (UUO); 10 mg/kg daily for 7 days", "result": "decreased their proliferation"}, {"measurement": "ICAM-1 mRNA expression", "setting": "obstructive kidney (UUO); 10 mg/kg daily, day 7", "result": "reduced"}, {"measurement": "IL-1β mRNA expression", "setting": "obstructive kidney (UUO); 10 mg/kg daily, day 7", "result": "reduced"}, {"measurement": "IL-1β protein (ELISA)", "setting": "obstructive kidney (UUO); 10 mg/kg daily, day 7", "result": "significantly suppressed"}, {"measurement": "Sirius red-positive areas", "setting": "obstructive kidney (UUO); 10 mg/kg daily, day 7", "result": "significantly reduced"}, {"measurement": "TGF-β1 mRNA expression", "setting": "obstructive kidney (UUO); 10 mg/kg daily, day 7", "result": "reduced their levels"}, {"measurement": "TGF-β1 protein (ELISA)", "setting": "obstructive kidney (UUO); 10 mg/kg daily, day 7", "result": "decreased"}, {"measurement": "TNF-α mRNA expression", "setting": "obstructive kidney (UUO); 10 mg/kg daily, day 7", "result": "reduced"}, {"measurement": "TNF-α protein (ELISA)", "setting": "obstructive kidney (UUO); 10 mg/kg daily, day 7", "result": "significantly suppressed"}, {"measurement": "TβRI mRNA expression at the basal level", "setting": "obstructive kidney (UUO); 10 mg/kg daily, day 7", "result": "not affected"}, {"measurement": "TβRII mRNA expression", "setting": "obstructive kidney (UUO); 10 mg/kg daily, day 7", "result": "reduced their levels"}, {"measurement": "TβRIII mRNA basal level", "setting": "obstructive kidney (UUO); 10 mg/kg daily, day 7", "result": "reduced the basal level"}, {"measurement": "UUO injury-induced MCP-1 mRNA expression", "setting": "obstructive kidney (UUO); 10 mg/kg daily, day 7", "result": "did not affect"}, {"measurement": "UUO-induced collagen type 1 mRNA expression", "setting": "obstructive kidney (UUO); 10 mg/kg daily, day 7", "result": "attenuated this response"}, {"measurement": "basal level of collagen type 1 expression in control kidneys", "setting": "obstructive kidney (UUO); 10 mg/kg daily, day 7", "result": "did not affect"}, {"measurement": "basal level of α-SMA expression in control kidneys", "setting": "obstructive kidney (UUO); 10 mg/kg daily, day 7", "result": "did not affect"}, {"measurement": "collagen type 1 expression in obstructive kidneys", "setting": "obstructive kidney (UUO); 10 mg/kg daily, day 7", "result": "decreased collagen type 1 to the basal level"}, {"measurement": "decrease in expression of ECM components (Sirius red, semi-quantitative)", "setting": "obstructive kidney (UUO); 10 mg/kg daily, day 7", "result": "approximately 60%"}, {"measurement": "expression of snail", "setting": "obstructive kidney (UUO); 10 mg/kg daily, day 7", "result": "did not affect"}, {"measurement": "expression of β-catenin", "setting": "obstructive kidney (UUO); 10 mg/kg daily, day 7", "result": "did not affect"}, {"measurement": "fibronectin expression (immunoblot densitometry)", "setting": "obstructive kidney (UUO); 10 mg/kg daily, day 7", "result": "blocked"}, {"measurement": "fibronectin expression (immunostaining)", "setting": "obstructive kidney (UUO); 10 mg/kg daily, day 7", "result": "decreased its expression"}, {"measurement": "leukocyte infiltration (naphthol AS-D chloroacetate esterase staining)", "setting": "obstructive kidney (UUO); 10 mg/kg daily, day 7", "result": "reduced leukocyte infiltration to basal levels"}, {"measurement": "α-SMA expression in obstructive kidneys", "setting": "obstructive kidney (UUO); 10 mg/kg daily, day 7", "result": "inhibited"}, {"measurement": "total STAT3 expression", "setting": "obstructive kidney (UUO); 10 mg/kg daily, day 7 and day 14", "result": "not affected"}, {"measurement": "collagen type 1 expression", "setting": "obstructive kidney (UUO); 10 mg/kg daily, day 14", "result": "decreased"}, {"measurement": "α-SMA expression", "setting": "obstructive kidney (UUO); 10 mg/kg daily, day 14", "result": "decreased"}, {"measurement": "STAT3 phosphorylation", "setting": "obstructive kidney (UUO); day 7", "result": "largely suppressed"}, {"measurement": "STAT3 phosphorylation", "setting": "obstructive kidney (UUO); day 14", "result": "small inhibition"}]}
